According to patent publication US9315494B2, “Alkyl-amide-substituted pyridyl compounds useful as modulators of IL-12, IL-23 and/or IFNα responses” (Bristol-Myers Squibb Company, priority 2012, dated 2016):
pIC50: −log10 of the molar value.

Assays:
[1] = system: IFNα-stimulated STAT-dependent luciferase reporter in Kit225 T cells; test: Kit225 T cell assay, IFNα stimulated STAT-dependent luciferase reporter; format: cell-based, human; settings: Kit225 T cells, 200 U/mL human recombinant IFNα, 5-6 hours, luciferase; read-out: IFNα (Kit225 T Cell Inhibition Data)
In short: (§1)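 Stimulus was either 200 U/mL human recombinant IFNα or 20 ng/mL IL-23, applied for 5-6 h to reporter-bearing Kit225 T cells grown in RPMI/10% FBS. Luciferase expression then quantified by luminescent assay.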

[2] = system: IL-23-stimulated STAT-dependent luciferase reporter in Kit225 T cells; test: Kit225 T cell assay, IL-23 stimulated STAT-dependent luciferase reporter; format: cell-based, human; settings: Kit225 T cells, 20 ng/mL human recombinant IL-23, 5-6 hours, luciferase; read-out: IL23 (Kit225 T Cell Inhibition Data)
In short: as §1

pIC50 [1]	pIC50 [2]	SMILES
7.30	6.96	CNC(=O)c1cnc(Nc2ccccn2)cc1Nc1ccc(Cl)cc1S(C)(=O)=O [Example 12]
7.00	7.15	CNC(=O)c1cnc(Nc2ccc(F)cn2)cc1Nc1cccc(C(=O)NC)c1OC [Example 316]
7.30	6.92	CNC(=O)c1cnc(Nc2cc(C)ccn2)cc1Nc1cc(F)ccc1S(C)(=O)=O [Example 56]
6.66	6.54	CNC(=O)c1cnc(Nc2cnc(OC)cn2)cc1Nc1ccccc1S(C)(=O)=O [Example 433]
6.68	6.49	CNC(=O)c1cnc(Nc2cc(C)c(C)nn2)cc1Nc1ccccc1S(C)(=O)=O [Example 415]
5.68	5.52	CCOc1cc(F)ccc1Nc1cc(Nc2ccc(N3CCOCC3)cn2)ncc1C(=O)NC [Example 232]
6.37	6.13	CNC(=O)c1cnc(Nc2cc(S(=O)(=O)N(C)C)ccn2)cc1Nc1ccccc1S(C)(=O)=O [Example 19]
6.72	6.47	CNC(=O)c1cnc(Nc2cc(C(=O)N(C)C)ccn2)cc1Nc1cc(F)cc(F)c1OC [Example 274]
5.95	5.66	CNC(=O)c1cnc(Nc2ccc(F)cn2)cc1Nc1ccc(C(=O)N2CCOCC2)cc1C [Example 236]
5.97	5.66	CCS(=O)(=O)c1ccccc1Nc1cc(Nc2ccc(F)cn2)ncc1C(=O)NC [Example 32]
6.68	6.50	CNC(=O)c1cnc(Nc2cc(C(=O)N3CCOCC3)ccn2)cc1Nc1cc(F)cc(F)c1OC [Example 265]
6.13	6.07	CNC(=O)c1cnc(Nc2ccc(-c3ccccc3)cn2)cc1Nc1ccccc1C(N)=O [Example 76]
5.57	5.76	CNC(=O)c1cnc(Nc2ccc(F)cn2)cc1Nc1ccc(C(N)=O)cc1 [Example 242]
7.10	6.96	CNC(=O)c1cnc(Nc2cc(C)c(F)cn2)cc1Nc1cccc(C(=O)NCCc2ccccc2)c1OC [Example 337]
6.54	6.62	CNC(=O)c1cnc(Nc2cc(NC)nc(C)n2)cc1Nc1cccnc1OC [Example 403]
6.72	6.56	CNC(=O)c1cnc(Nc2cc(C#N)ccn2)cc1Nc1ccc(F)cc1OC [Example 155]
8.06	8.36	[2H]C([2H])([2H])NC(=O)c1cnc(Nc2cc(C)nc(C)n2)cc1Nc1cccc(-c2csc(C)n2)c1OC [Example 404, 6-((2,6-dimethylpyrimidin-4-yl)amino)-4-((2-methoxy-3-(2-methylthiazol-4-yl)phenyl)amino)-N-trideuteromethylnicotinamide]
6.77	6.92	CNC(=O)c1cnc(Nc2cc(C)nc(C)n2)cc1Nc1cccc(-c2ncn(CC(C)(C)O)n2)c1OC [Example 384]
6.96	6.68	CNC(=O)c1cnc(Nc2cc(C)n(C)n2)cc1Nc1ccccc1S(C)(=O)=O [Example 439]
6.43	6.32	CNC(=O)c1cnc(Nc2ccc(F)cn2)cc1Nc1ccccc1SC [Example 65]
5.22	5.30	CNC(=O)c1cnc(Nc2ccc(F)cn2)cc1Nc1ccccc1NC(C)=O [Example 280]
5.73	5.79	CNC(=O)c1cnc(Nc2cnccn2)cc1Nc1ccccc1C(N)=O [Example 178]
7.05	6.76	CNC(=O)c1cnc(Nc2ccc(F)cn2)cc1Nc1cccc(F)c1OC [Example 171]
5.68	5.34	CNC(=O)c1ccc(Nc2cc(Nc3ccc(F)cn3)ncc2C(=O)NC)cc1 [Example 243]
5.77	5.62	CNC(=O)c1cnc(Nc2ccc(F)cn2)cc1Nc1cccc(F)c1S(C)(=O)=O [Example 47]

SMILES	pIC50 [1]	pIC50 [2]
CNC(=O)c1cnc(Nc2cc3ccccc3cn2)cc1Nc1ccccc1S(C)(=O)=O [Example 25]	6.96	7.06
